Marks after values point to notes of the source that are not given here.
How the values were obtained:
[1] = tested on: tumor-associated endothelial cells; assay: CD31/TUNEL fluorescent double labeling, apoptosis of tumor-associated endothelial cells; type: in vivo, nude mice; conditions: Median ± S.D.; ratio of apoptotic endothelial cells to total endothelial cells
Method: Double Immunofluorescence Staining for CD31/PECAM-1 and EGFR, pEGFR, VEGFR, pVEGFR, PDGFRβ, pPDGFRβ, Pericytes (desmin-positive cells), and TUNEL. Frozen sections of pancreatic tumors are mounted on slides and fixed. Immunofluorescence for CD31 is performed using Alexa594 conjugated secondary antibody, and samples are again blocked briefly in a blocking solution (5% normal horse serum and 1% normal goat serum in PBS) as described above and incubated with antibody against human EGFR, pEGFR, VEGFR, pVEGFR, PDGFRβ, pPDGFRβ, or desmin at 4° C. overnight. After washes and blocking with blocking solution, samples are incubated with Alexa488 conjugated secondary antibody. Endothelial cells are identified by red fluorescence, and EGF-R, pEGFR, VEGFR, pVEGFR, PDGFRβ, pPDGFRβ and desmin positive cells (pericytes) are identified by green fluorescence. The presence of growth factor receptors and phosphorylated receptors on endothelial cells are detected by colocalization of red and green fluorescence, which appeared yellow. TUNEL-positive apoptotic cells are detected by localized green fluorescence within cell nuclei, and endothelial cells are identified by red fluorescence. Apoptotic endothelial cells are identified by yellow fluorescence within the nuclei.

VEGFR [2] = target: T1, VEGFR (Mus musculus, UniProt P35918); assay: Double immunofluorescence CD31/pVEGFR on tumor-associated endothelial cells; type: in vivo, nude mice; conditions: double immunofluorescence with CD31
T1 construct: Frozen sections of pancreatic tumors are mounted on slides and fixed; from tissue; host or cells: tumour-associated endothelial cells in L3.6pl tumours of nude mice

VEGFR [3] = assay: IHC analysis of phosphorylated VEGFR in L3.6pl pancreatic tumors; type: in vivo, human; conditions: IHC of pancreatic tumors from treated mice
Excerpt: (§1) Immunohistochemical (IHC) Analysis to Detect EGF, VEGF, PDGF-BB, EGFR, VEGFR, PDGFRβ, pEGFR, pVEGFR, pPDGF-R in Pancreatic Tumors. Paraffin-embedded pancreatic tumors of mice from all treatment groups are immunostained to evaluate the expression of EGF, VEGF, PDGF-BB, EGFR, VEGFR, PDGFRβ, phosphorylated (p)EGFR, pVEGFR, and pPDGFRβ. The sections are deparaffinized in xylene, dehydrated with alcohol and rehydrated in PBS. Endogenous peroxidase is blocked with 3% hydrogen peroxide in PBS. Samples are exposed to protein block (5% normal horse serum, 1% normal goat serum in PBS) and incubated overnight at 4° C. with each primary antibody at the appropriate dilution. […] Slides are counterstained with Gill's #3 hematoxylin. Sections stained for immunoperoxidase or hematoxylin and eosin are examined in a microscope equipped with a three-chip-charged coupled device (CCD) color video camera. Digital images are captured using Optimas Image Analysis software (Media Cybernetics, Md.).

EGFR [4] = target: T2, EGFR (Homo sapiens, UniProt P00533); assay: IHC analysis of phosphorylated EGFR in L3.6pl pancreatic tumors; type: in vivo; conditions: IHC of pancreatic tumors from treated mice
T2 construct: Paraffin-embedded pancreatic tumors of mice from all treatment groups are immunostained; from tissue; host or cells: L3.6pl orthotopic pancreatic tumours grown in nude mice
Excerpt: as §1

[5] = tested on: L3.6pl human pancreatic cancer cells; assay: Therapy of established L3.6pl human pancreatic carcinoma tumors growing in the pancreas of athymic nude mice (tumor weight); type: in vivo; conditions: for Tumor weight (g) Median: pancreatic tumor, AEE788 50 mg/kg oral 3x/week, STI571 50 mg/kg oral daily, gemcitabine 50 mg/kg i.p. twice weekly, 4 weeks, killed day 49, n=10; for effect on tumor growth (in words): L3.6pl implanted in the pancreas of nude mice, each drug 50 mg/kg
Excerpt: Animals and Orthotopic Implantation of Tumor Cells. Male athymic nude mice (NCI-nu) are purchased from the Animal Production Area of the National Cancer Institute Frederick Cancer Research and Development Center (Frederick, Md.). The mice are housed and maintained under specific pathogen-free conditions. The mice are used when they are 8 to 12 weeks old. To produce pancreatic tumors, L3.6pl cells are harvested from subconfluent cultures by a brief exposure to 0.25% trypsin and 0.02% EDTA. Trypsinization is stopped with medium containing 10% FBS, and the cells are washed once in serum-free medium and resuspended in Hanks' balanced salt solution (HBSS). Only suspensions consisting of single cells with greater than 90% viability are used for injection into the pancreas of nude mice as described previously (Hwang et al. in Clin Cancer Res 2003; 9:6534-44). Treatment of Established Human Pancreatic Carcinoma Tumors Growing in the Pancreas of Athymic Nude Mice. Twenty-one days after the intra-pancreatic injection of 0.5×10^6 viable L3.6pl cells in 50 μl HBSS, the pancreatic tumors reach the size of 5-6-mm. […] All mice are treated for 4 weeks and killed on day 49 of the experiment. Necropsy Procedures and Histological Studies. […] Tumors growing in the pancreas are excised and weighed. For immunohistochemical staining procedures, one part of the tumor tissue is fixed in formalin and embedded in paraffin and the other is embedded in OCT compound (Miles, Inc., Elkhart, Ind.), rapidly frozen in liquid nitrogen, and stored at −70° C. Statistical Analysis. Body weight, tumor weight, PCNA-positive cells, mean vessel density (CD31/PECAM-1), and TUNEL-positive cells are compared using the Mann-Whitney U test. Survival analysis is computed by the Kaplan-Meier method and compared by the Log rank test.

[6] = tested on: L3.6pl human pancreatic cancer cells; assay: Apoptosis (TUNEL) in L3.6pl tumors; type: in vivo; conditions: Median ± S.D.; TUNEL-positive cells in 10 random 0.159-mm^2 fields at ×100
Method: Analysis of apoptotic cells is performed by using a commercially available TUNEL kit (Promega) with the following modifications: Samples are fixed and incubated with an equilibration buffer followed by a reaction buffer (containing nucleotide mix and terminal deoxynucleotidyl transferase enzyme). Immunofluorescence microscopy is performed in a Zeiss Axioplan microscope (Carl Zeiss, Inc., Thornwood, N.Y.) equipped with an HBO 100 mercury lamp, narrow bandpass filters to individually select for green, red, and blue fluorescence (Chroma Technology Corp., Brattleboro, Vt.). Images are captured using a cooled CCD Hamamatsu Orca camera (Hamamatsu Corp., Bridgewater, N.J.) and Image Pro Analysis software (Media Cybernetics, Silver Spring, Md.). Photomontages are prepared using Adobe Photoshop software (Adobe Systems, Inc., San Jose, Calif.). […] Statistical Analysis. Body weight, tumor weight, PCNA-positive cells, mean vessel density (CD31/PECAM-1), and TUNEL-positive cells are compared using the Mann-Whitney U test. Survival analysis is computed by the Kaplan-Meier method and compared by the Log rank test.

Endothelial cells = assay: Mean vessel density (CD31/PECAM-1) in L3.6pl tumors; type: in vivo, nude mice; conditions: Median ± S.D., microvessels in 10 random 0.159-mm^2 fields at ×100
Method: (§2) IHC Determination of Proliferating Cell Nuclear Antigen (PCNA), CD31/PECAM-1 (Endothelial Cells) and TUNEL (Apoptosis). Paraffin-embedded tissues are used for IHC identification of proliferating cell nuclear antigen (PCNA). Frozen tissues used for identification of CD31/PECAM-1 are sectioned (8-10 μm), mounted on positively charged slides, and air-dried for 30 min. Frozen sections are fixed in cold acetone (5 min), in acetone/chloroform (v/v; 5 min), and again in acetone (5 min), and washed with PBS. IHC procedures are performed as described previously (Hwang et al. in Clin Cancer Res 2003; 9:6534-44). Control samples exposed to a secondary antibody alone show no specific staining. […] Statistical Analysis. Body weight, tumor weight, PCNA-positive cells, mean vessel density (CD31/PECAM-1), and TUNEL-positive cells are compared using the Mann-Whitney U test. Survival analysis is computed by the Kaplan-Meier method and compared by the Log rank test.

[7] = Body weight of nude mice in the L3.6pl therapy study; type: in vivo; conditions: nude mice with orthotopic L3.6pl tumors; AEE788 50 mg/kg oral 3x/week, STI571 50 mg/kg oral daily, gemcitabine 50 mg/kg i.p. twice weekly; 4 weeks, killed day 49; n=10
Method: Treatment of Established Human Pancreatic Carcinoma Tumors Growing in the Pancreas of Athymic Nude Mice. Twenty-one days after the intra-pancreatic injection of 0.5×10^6 viable L3.6pl cells in 50 μl HBSS, the pancreatic tumors reach the size of 5-6-mm. […] All mice are treated for 4 weeks and killed on day 49 of the experiment.
Necropsy Procedures and Histological Studies. In the first treatment study, the mice are killed on day 49 after tumor cell injection, weighted, and necropsied. Tumors growing in the pancreas are excised and weighed. For immunohistochemical staining procedures, one part of the tumor tissue is fixed in formalin and embedded in paraffin and the other is embedded in OCT compound (Miles, Inc., Elkhart, Ind.), rapidly frozen in liquid nitrogen, and stored at −70° C.
Statistical Analysis. Body weight, tumor weight, PCNA-positive cells, mean vessel density (CD31/PECAM-1), and TUNEL-positive cells are compared using the Mann-Whitney U test. Survival analysis is computed by the Kaplan-Meier method and compared by the Log rank test.

EGFR [8] = target: T3, EGFR (Mus musculus, UniProt Q01279); assay: Double immunofluorescence CD31/pEGFR on tumor-associated endothelial cells; type: in vivo, nude mice; conditions: double immunofluorescence with CD31
T3 construct: Frozen sections of pancreatic tumors are mounted on slides and fixed; from tissue; host or cells: tumour-associated endothelial cells in L3.6pl tumours of nude mice

[9] = tested on: L3.6pl human pancreatic cancer cells; assay: Cell proliferation (PCNA) IHC in L3.6pl tumors; type: in vivo; conditions: Median ± S.D., positive cells in 10 random 0.159-mm^2 fields at ×100
Method: as §2, with “9:6534-44).” for “9:6534-44). Control samples exposed to a secondary antibody alone show no specific staining.”

[10] = tested on: EGF, VEGF, PDGF-BB, EGFR, VEGFR, and PDGFR; assay: IHC expression level of growth factors and receptors in L3.6pl pancreatic tumors; type: in vivo, human; conditions: IHC of pancreatic tumors from treated mice
Excerpt: Immunohistochemical (IHC) Analysis to Detect EGF, VEGF, PDGF-BB, EGFR, VEGFR, PDGFRβ, pEGFR, pVEGFR, pPDGF-R in Pancreatic Tumors. Paraffin-embedded pancreatic tumors of mice from all treatment groups are immunostained to evaluate the expression of EGF, VEGF, PDGF-BB, EGFR, VEGFR, PDGFRβ, phosphorylated (p)EGFR, pVEGFR, and pPDGFRβ. The sections are deparaffinized in xylene, dehydrated with alcohol and rehydrated in PBS. Endogenous peroxidase is blocked with 3% hydrogen peroxide in PBS. Samples are exposed to protein block (5% normal horse serum, 1% normal goat serum in PBS) and incubated overnight at 4° C. with each primary antibody at the appropriate dilution. After 1 h incubation at room temperature with peroxidase-conjugated secondary antibody, positive reaction is detected by exposure to stable 3,3′-diaminobenzidine (DAB) (Phoenix Biotechnologies, Huntsville, Ala.). Slides are counterstained with Gill's #3 hematoxylin. Sections stained for immunoperoxidase or hematoxylin and eosin are examined in a microscope equipped with a three-chip-charged coupled device (CCD) color video camera. Digital images are captured using Optimas Image Analysis software (Media Cybernetics, Md.).

PDGFRβ [11] = assay: IHC analysis of phosphorylated PDGFRβ in L3.6pl pancreatic tumors; type: in vivo, human; conditions: IHC of pancreatic tumors from treated mice
Excerpt: as §1

[12] = tested on: tumor-associated endothelial cells; assay: Pericyte (desmin) coverage on tumor-associated endothelial cells; type: in vivo, nude mice; conditions: desmin-positive cells in contact with CD31-positive cells
Method: Double Immunofluorescence Staining for CD31/PECAM-1 and EGFR, pEGFR, VEGFR, pVEGFR, PDGFRβ, pPDGFRβ, Pericytes (desmin-positive cells), and TUNEL. Frozen sections of pancreatic tumors are mounted on slides and fixed. Immunofluorescence for CD31 is performed using Alexa594 conjugated secondary antibody, and samples are again blocked briefly in a blocking solution (5% normal horse serum and 1% normal goat serum in PBS) as described above and incubated with antibody against human EGFR, pEGFR, VEGFR, pVEGFR, PDGFRβ, pPDGFRβ, or desmin at 4° C. overnight. After washes and blocking with blocking solution, samples are incubated with Alexa488 conjugated secondary antibody. Endothelial cells are identified by red fluorescence, and EGF-R, pEGFR, VEGFR, pVEGFR, PDGFRβ, pPDGFRβ and desmin positive cells (pericytes) are identified by green fluorescence. The presence of growth factor receptors and phosphorylated receptors on endothelial cells are detected by colocalization of red and green fluorescence, which appeared yellow. The coverage of pericytes on endothelial cells is determined by counting CD31 positive cells in direct contact with desmin-positive cells and CD31-positive cells without direct association with desmin-positive cells in five randomly selected microscopic fields.

PDGFRβ [13] = target: T4, PDGFRβ (Mus musculus, UniProt P05622); assay: Double immunofluorescence CD31/pPDGFRβ on tumor-associated endothelial cells; type: in vivo, nude mice; conditions: double immunofluorescence with CD31
T4 construct: Frozen sections of pancreatic tumors are mounted on slides and fixed; from tissue; host or cells: tumour-associated endothelial cells in L3.6pl tumours of nude mice

[14] = listed as {6-[4-(4-ethyl-piperazin-1-ylmethyl)-phenyl]-7H-pyrrolo[2,3-d]pyrimidin-4-yl}-(1)

T2 sequence (P00533 25-1210): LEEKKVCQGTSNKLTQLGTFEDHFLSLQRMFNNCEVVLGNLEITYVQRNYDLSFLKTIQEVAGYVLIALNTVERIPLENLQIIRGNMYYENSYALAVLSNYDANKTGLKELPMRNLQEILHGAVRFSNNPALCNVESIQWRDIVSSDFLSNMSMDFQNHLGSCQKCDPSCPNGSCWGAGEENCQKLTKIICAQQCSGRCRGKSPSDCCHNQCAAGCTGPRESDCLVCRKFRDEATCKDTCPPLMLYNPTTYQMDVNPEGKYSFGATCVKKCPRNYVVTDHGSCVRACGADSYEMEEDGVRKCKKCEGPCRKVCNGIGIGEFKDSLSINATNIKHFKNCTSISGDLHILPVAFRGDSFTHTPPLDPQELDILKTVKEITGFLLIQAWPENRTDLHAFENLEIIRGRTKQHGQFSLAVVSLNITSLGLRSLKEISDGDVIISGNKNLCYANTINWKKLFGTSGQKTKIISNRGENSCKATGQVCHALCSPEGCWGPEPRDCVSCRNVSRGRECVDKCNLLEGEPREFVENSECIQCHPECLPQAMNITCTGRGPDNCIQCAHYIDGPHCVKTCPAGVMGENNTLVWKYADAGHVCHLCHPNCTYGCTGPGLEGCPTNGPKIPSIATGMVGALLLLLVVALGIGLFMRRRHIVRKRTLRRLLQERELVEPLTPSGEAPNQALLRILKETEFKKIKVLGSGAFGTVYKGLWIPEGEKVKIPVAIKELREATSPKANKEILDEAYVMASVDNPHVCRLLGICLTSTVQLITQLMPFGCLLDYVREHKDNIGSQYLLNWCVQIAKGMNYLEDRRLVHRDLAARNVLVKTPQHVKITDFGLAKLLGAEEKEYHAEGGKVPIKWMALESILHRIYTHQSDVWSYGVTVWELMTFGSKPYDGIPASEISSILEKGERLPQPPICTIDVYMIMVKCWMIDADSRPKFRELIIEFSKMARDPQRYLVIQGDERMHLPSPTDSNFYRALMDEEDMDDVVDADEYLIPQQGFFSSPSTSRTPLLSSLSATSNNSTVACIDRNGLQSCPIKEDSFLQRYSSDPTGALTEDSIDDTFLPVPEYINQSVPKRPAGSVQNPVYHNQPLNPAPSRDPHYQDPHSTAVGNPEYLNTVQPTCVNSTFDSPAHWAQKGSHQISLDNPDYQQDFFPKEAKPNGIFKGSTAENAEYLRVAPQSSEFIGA
T1 sequence (P35918 20-1345): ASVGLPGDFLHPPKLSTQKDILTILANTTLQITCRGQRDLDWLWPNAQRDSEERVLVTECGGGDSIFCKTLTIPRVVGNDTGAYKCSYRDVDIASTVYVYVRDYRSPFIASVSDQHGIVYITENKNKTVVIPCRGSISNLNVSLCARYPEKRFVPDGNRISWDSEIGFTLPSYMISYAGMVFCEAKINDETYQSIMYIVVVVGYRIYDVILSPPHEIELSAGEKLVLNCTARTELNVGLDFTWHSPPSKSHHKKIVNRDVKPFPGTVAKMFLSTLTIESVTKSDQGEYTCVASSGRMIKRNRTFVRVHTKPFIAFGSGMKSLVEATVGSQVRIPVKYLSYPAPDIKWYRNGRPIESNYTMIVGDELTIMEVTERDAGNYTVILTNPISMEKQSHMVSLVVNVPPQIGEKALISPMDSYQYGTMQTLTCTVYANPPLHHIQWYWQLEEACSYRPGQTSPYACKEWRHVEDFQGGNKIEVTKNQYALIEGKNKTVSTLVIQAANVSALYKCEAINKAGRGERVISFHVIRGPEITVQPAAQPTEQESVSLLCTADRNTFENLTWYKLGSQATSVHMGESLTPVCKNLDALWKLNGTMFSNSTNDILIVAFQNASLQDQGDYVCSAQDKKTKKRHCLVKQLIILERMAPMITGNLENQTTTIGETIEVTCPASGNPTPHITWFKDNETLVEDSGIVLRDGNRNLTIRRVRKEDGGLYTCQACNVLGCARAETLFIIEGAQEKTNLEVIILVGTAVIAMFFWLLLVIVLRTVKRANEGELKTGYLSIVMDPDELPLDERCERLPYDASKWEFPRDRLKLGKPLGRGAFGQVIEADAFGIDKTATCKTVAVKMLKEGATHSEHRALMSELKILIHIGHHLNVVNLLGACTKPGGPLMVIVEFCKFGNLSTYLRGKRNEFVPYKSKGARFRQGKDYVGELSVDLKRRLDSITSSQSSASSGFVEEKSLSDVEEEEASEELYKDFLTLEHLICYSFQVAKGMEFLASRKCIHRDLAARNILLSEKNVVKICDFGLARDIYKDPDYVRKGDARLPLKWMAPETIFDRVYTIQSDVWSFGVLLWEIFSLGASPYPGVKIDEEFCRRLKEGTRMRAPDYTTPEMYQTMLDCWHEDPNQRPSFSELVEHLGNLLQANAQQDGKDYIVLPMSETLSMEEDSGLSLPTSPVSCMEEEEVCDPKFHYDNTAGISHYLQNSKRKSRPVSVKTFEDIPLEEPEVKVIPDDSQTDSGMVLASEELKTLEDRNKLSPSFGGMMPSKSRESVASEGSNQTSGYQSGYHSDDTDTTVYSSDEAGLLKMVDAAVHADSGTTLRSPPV
T3 sequence (Q01279 25-1210): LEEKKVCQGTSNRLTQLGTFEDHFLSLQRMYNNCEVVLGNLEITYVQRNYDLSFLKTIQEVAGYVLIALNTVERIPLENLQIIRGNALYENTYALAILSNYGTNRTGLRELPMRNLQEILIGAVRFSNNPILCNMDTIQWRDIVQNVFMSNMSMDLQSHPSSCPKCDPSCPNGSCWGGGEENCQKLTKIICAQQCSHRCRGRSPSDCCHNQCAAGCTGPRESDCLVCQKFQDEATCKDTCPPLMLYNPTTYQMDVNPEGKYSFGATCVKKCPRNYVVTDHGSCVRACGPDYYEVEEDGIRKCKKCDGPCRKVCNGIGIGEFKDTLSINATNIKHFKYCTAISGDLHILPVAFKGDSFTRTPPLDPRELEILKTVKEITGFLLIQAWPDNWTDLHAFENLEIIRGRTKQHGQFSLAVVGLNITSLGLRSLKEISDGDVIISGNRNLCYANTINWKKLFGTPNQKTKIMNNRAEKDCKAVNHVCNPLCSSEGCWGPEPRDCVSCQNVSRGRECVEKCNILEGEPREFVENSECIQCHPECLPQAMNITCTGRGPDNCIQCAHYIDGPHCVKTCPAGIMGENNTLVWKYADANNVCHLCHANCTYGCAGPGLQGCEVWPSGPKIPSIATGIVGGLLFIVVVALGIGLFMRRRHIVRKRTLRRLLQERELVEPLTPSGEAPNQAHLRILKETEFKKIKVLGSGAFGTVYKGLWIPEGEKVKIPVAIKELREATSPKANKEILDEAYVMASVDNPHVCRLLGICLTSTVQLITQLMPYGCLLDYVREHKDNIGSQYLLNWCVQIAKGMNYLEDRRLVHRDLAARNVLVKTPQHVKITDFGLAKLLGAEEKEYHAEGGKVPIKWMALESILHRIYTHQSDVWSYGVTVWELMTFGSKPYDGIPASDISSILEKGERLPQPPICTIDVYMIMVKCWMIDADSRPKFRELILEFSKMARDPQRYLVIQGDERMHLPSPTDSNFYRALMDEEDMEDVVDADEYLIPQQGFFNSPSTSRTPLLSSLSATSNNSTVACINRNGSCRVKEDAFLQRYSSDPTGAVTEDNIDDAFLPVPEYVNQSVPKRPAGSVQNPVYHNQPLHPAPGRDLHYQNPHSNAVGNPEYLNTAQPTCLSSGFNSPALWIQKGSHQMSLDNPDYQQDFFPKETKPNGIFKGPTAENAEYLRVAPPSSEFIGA
T4 sequence (P05622 32-1098): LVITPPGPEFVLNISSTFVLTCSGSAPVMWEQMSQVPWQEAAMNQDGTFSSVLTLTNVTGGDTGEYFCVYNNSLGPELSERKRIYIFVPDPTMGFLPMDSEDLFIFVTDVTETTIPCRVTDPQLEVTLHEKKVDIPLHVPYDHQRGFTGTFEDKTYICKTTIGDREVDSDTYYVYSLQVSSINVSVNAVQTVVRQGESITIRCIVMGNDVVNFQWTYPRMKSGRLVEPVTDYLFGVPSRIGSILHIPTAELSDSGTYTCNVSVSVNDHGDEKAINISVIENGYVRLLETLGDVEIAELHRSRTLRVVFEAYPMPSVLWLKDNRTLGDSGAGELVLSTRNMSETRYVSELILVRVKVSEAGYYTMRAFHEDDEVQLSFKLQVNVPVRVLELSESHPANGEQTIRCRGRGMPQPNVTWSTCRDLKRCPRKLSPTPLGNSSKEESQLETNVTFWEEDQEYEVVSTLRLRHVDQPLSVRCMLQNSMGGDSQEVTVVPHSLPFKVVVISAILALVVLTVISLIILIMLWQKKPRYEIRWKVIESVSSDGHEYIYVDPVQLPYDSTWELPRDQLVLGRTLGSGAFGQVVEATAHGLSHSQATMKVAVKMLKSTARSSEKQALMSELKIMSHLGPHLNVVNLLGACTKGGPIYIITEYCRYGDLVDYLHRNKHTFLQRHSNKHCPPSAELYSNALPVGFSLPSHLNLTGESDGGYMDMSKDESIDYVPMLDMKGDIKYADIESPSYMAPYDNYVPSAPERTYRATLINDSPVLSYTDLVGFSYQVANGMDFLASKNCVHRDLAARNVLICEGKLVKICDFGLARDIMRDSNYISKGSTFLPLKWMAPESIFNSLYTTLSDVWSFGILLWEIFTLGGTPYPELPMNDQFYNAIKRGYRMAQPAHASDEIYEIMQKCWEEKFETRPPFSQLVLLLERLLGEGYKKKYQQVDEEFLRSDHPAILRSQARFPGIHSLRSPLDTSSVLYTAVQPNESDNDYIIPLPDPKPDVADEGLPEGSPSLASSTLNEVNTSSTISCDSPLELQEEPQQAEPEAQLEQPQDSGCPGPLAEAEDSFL

Compound	Endothelial cells TUNEL+ (%) [1]	phosphorylation of VEGFR on tumor-associated endothelial cells (VEGFR [2])	phosphorylation of VEGFR in tumors (VEGFR [3])	phosphorylation of VEGFR in tumors (VEGFR [3]; [14])	phosphorylation of EGFR in tumors (EGFR [4])	phosphorylation of EGFR in tumors (EGFR [4]; [14])	Tumor weight (g) Median [5]	Tumor cells TUNEL (number of apoptotic tumor cells) [6]	Endothelial cells CD31 (mean vessel density) (Endothelial cells)	Body weight(g) Median [7]	phosphorylation of EGFR on tumor-associated endothelial cells (EGFR [8])	Tumor cells PCNA (number of PCNA-positive cells) [9]	expression level of EGF, VEGF, PDGF-BB, EGFR, VEGFR, and PDGFR by the tumor cells or in the stroma cells [10]	effect on tumor growth (in words) [5]	Endothelial cells CD31 (mean vessel density) (Endothelial cells; listed as gemcitabine)	Tumor cells PCNA (number of PCNA-positive cells) ([9]; listed as gemcitabine)	phosphorylation of PDGFRβ in tumors (PDGFRβ [11])	pericyte coverage on tumor-associated endothelial cells [12]	phosphorylation of PDGFRβ on tumor-associated endothelial cells (PDGFRβ [13])
CCN1CCN(Cc2ccc(-c3cc4c(N[C@H](C)c5ccccc5)ncnc4[nH]3)cc2)CC1 [AEE788]	3 ± 3^e %	diminished	significantly reduced	decreases phosphorylation	significantly reduced	decreases phosphorylation	0.33 g	14 ± 4^f	25 ± 5^d	26.2 g	diminished	233 ± 54^e	do not alter the expression level	–	–	–	–	–	–
Nc1ccn([C@@H]2O[C@H](CO)[C@@H](O)C2(F)F)c(=O)n1 [Gemcitabine]	1 ± 1%	–	–	–	–	–	0.78 g	8 ± 3^f	38 ± 7	25.7 g	–	305 ± 71	do not alter the expression level	does not inhibit tumor growth	does not decrease MVD	decreases the number of dividing PCNA-positive cells	–	–	–
Cc1ccc(NC(=O)c2ccc(CN3CCN(C)CC3)cc2)cc1Nc1nccc(-c2cccnc2)n1 [STI571, N-{5-[4-(4-methyl-piperazino-methyl)-benzoylamido]-2-methylphenyl}-4-(3-pyridyl)-2-pyrimidine-amine]	0 ± 0%	–	–	–	–	–	0.96 g	6 ± 2	–	–	–	–	do not alter the expression level	does not inhibit tumor growth	–	–	inhibited	decreases pericyte coverage	decreased
